Measured values published in article PMC5862576, “Mitochondrial fission as a driver of stemness in tumor cells: mDIVI1 inhibits mitochondrial function, cell migration and cancer stem cell (CSC) signalling” (Oncotarget, 2018).

Tests used:
Type in all cases: cell-based, Human
MCF7 cells [1] = assay: Mitochondrial mass quantification (MitoTracker Deep Red, flow cytometry); settings: 50 µM, 5 days, vs vehicle
Method: To measure mitochondrial mass, cells were stained with MitoTracker Deep Red (M22426, Invitrogen). Briefly, 2 × 10^5 MCF7 cells per well were seeded in 6-well plates. When cells were attached, mDIVI1 and vehicle treatments were added for 2 days or 5 days in triplicate. Cells were then incubated for 15 min at 37° C with the 10 nM Mitotracker Deep Red probe diluted in PBS ([…], Sigma). All subsequent steps were performed in the dark. Cells were washed in PBS, harvested, and re-suspended in PBS. Mitotracker signal was quantified as mean fluorescent intensity of the viable cell population in a Fortessa flow cytometer (BD Bioscience). Results were analyzed using FlowJo software.

MCF7 cells [2] = assay: Label-free semi-quantitative proteomics; settings: 10 µM, 48 hours vs vehicle
Method: HPLC gradient grade acetonitrile was obtained from Fisher Scientific. Briefly, 2 × 10^6 MCF7 cells were seeded in 15 cm plates until cells were attached. […] As control, vehicle-treated cells were processed in parallel. After 48 hours of treatment, cells were lysed in RIPA buffer (R0278, Sigma) and kept at 4° C for 20 minutes with rotation. Lysates were cleared by centrifugation for 10 minutes at 10,000 × g and supernatants were collected and kept frozen at −80° C. Lysate samples were thawed to room temperature and their concentrations equalised to 1 µg/µL (50 µL volume) with RIPA buffer, and further processed for trypsin digestion by sequential reduction of disulphide bonds with TCEP and alkylation with MMTS. Briefly, 1 µL benzonase (Novagen) was added to the 50 µL aliquot and placed on ice for 15 minutes. The sample was then taken to dryness using a SpeedVac, and resuspended in 22.5 µL trypsin reaction buffer (40 mM ammonium bicarbonate and 9% acetonitrile). One µL of 50 mM TCEP solution was added to each sample, mixed briefly and placed on a heater block at 60° C for 60 minutes. After cooling to room temperature, 0.5 µL of 200 mM MMTS solution was added to each sample and allowed to react for 15 minutes. Trypsin was added in two waves to ensure efficient digestion of the sample. Firstly, 20 µg of sequencing grade trypsin was resuspended in 1800 µL of trypsin reaction buffer; 225 µL of this solution were added to each sample for digestion, and the reactions were left at 37° C overnight with shaking (600 rpm). The following morning, a further aliquot of trypsin was added. Two ml of trypsin reaction buffer was added to […] of sequencing grade trypsin; 250 µL of this solution were added to each of the digest samples from overnight, and the reactions were left at 37° C for 4 hours with shaking (600 rpm). […] The digested solution was diluted in 7.5 mL of acetonitrile containing 0.3% formic acid. PolyhydroxyethylA SPE 12 µm, 300A, 300mg cartridges (obtained from PolyLC) were used for the HILIC procedure. Prior to use, cartridges required an overnight soak in 50 mM formic acid followed by rinsing with water the following day. […] The diluted samples were loaded onto the cartridges and washed with a further 10 mL Buffer A. Finally, peptides were eluted in 1 mL Buffer C (9 parts Buffer B plus 1 part Buffer A) and the samples dried on a Speedvac to remove organic solvent prior to LC-MS/MS analysis. Lyophilised digests were resuspended in 50 µL of 0.1% TFA to give an approximate concentration of 1 µg/µL. One µL injection volumes were used throughout resulting in an on-column peptide loading of approximately 1 µg per injection. Analysis was performed in quintuplicate for each sample. All LC-MS/MS analyses were performed on an LTQ Orbitrap XL mass spectrometer coupled to an Ultimate 3000 RSLCnano system (Thermo Scientific). One µL injection volumes were used throughout and samples loaded directly onto the analytical column, PepMap RSLC C18, 2 µm × 75 µm id × 50 cm (Thermo Scientific). The composition (v/v) of LC buffers were as follows; […] Peptides were loaded directly onto the column at a flow rate of 400 nl/min with an initial mobile phase composition of 1% B. […] The column was then allowed to re-equilibrate to 1% B for a total analysis time of 74 minutes. The mass spectrometer was instructed to perform data dependent acquisition on the top six precursor ions, which were measured in the Orbitrap FTMS detector over the mass range 370–1200 m/z, at a nominal resolution of 60,000. […] Gas-phase fractionation was performed on the five replicate injections such that MS/MS data was collected for precursor ion range 370–494 m/z Injection 1, 494–595 m/z Injection 2, 595–685 m/z Injection 3, 685–817 m/z Injection 4 and 817–1200 m/z Injection 5. Xcalibur raw data files acquired on the LTQ-Orbitrap XL were directly imported into Progenesis LCMS software (Waters Corp) for peak detection and alignment. Data were analysed using the Mascot search engine. […]

MCF7 cells [3] = assay: Extracellular flux analysis (ECAR and OCR, Seahorse XF96); settings: 48 hours
MCF7 cells [4] = assay: Bradford assay (protein content)
Method: Extracellular acidification rate (ECAR) and oxygen consumption rate (OCR) were measured in a XF96 Extracellular Flux Analyzer (Seahorse Biosciences). Briefly, 1 × 10^4 MCF7 cells per well were seeded in XF96 plates and incubated with complete medium. When cells were attached, mDIVI1 and vehicle treatments were added. Six replicates were run for each condition. After 48 hours, un-buffered DMEM XF medium supplemented with 2 mM glutamine (pH 7.4) was added to the cells, and placed in a 37° C CO2-free incubator for 1 hour. Ten mM glucose, 1 μM oligomycin and 100 mM 2-deoxyglucose (2-DG) were injected into the media at different time points and ECAR was measured. Likewise, ECAR and OCR were quantified using un-buffered DMEM XF medium supplemented with 2 mM glutamine, 2 mM sodium pyruvate and 10 mM glucose. One μM oligomycin, 0.9 μM FCCP and 1 μM rotenone and antimycin A were injected into the media at different time points and OCR and ECAR were measured.
Cells were finally lysed with 0.1 M NaOH and protein lysate was subsequently stained with Quick Start™ Bradford 1× Dye Reagent (500–0205, BioRad) to normalise results. All parameters were calculated according to manufacturer.

## COc1cc(-n2c(=S)[nH]c3ccccc3c2=O)c(Cl)cc1Cl [mDIVI1, 3-(2,4-Dichloro-5-methoxyphenyl) 2,3-dihydro 2-thioxo-4(1H) quinazolinone]
MCF7 cells [1]
  Mitotracker Deep Red mean fluorescence intensity (mitochondrial mass): significantly higher
MCF7 cells [2]
  BMP7 expression change (proteomics): -47.17
  CELSR2 expression change (proteomics): −1.6
  EPCAM expression change (proteomics): −1.58
  EphA2 expression change (proteomics): -1.74
  F11 receptor expression change (proteomics): −1.70
  LAMP1 upregulation (proteomics): 2.83
  STAT3 expression change (proteomics): -1.83
  ZO-1 expression change (proteomics): −1.62
  collagen type IV upregulation (proteomics): 1.9 fold
  desmoplakin expression change (proteomics): −4.58
  junction plakoglobin expression change (proteomics): −1.65
  keratin 8 expression change (proteomics): −5.24
  keratin 18 expression change (proteomics): −12.21
MCF7 cells [2]; Glycolysis
  Hexokinase 1 (HK1) change in expression: ↓Infinite
MCF7 cells [3]
  basal glycolysis (ECAR): did not have a significant effect
  oxygen consumption linked to ATP production: significantly reduced
  oxygen consumption linked to basal respiration: significantly reduced
MCF7 cells [3]; all mDIVI1 concentrations
  spare respiratory capacity: slightly increased
MCF7 cells [3]; vs vehicle
  OCR/ECAR ratio: decreased dose-dependently
MCF7 cells [3]; to a lesser extent, at higher concentrations
  oxygen consumption linked to maximal respiration: significantly reduced
MCF7 cells [3]; ≥10 µM
  glycolytic capacity (ECAR): reduced
  glycolytic reserve (ECAR): reduced
MCF7 cells [4]; 10 µM, 48 hours
  effect on MCF7 protein content: slightly decreased
MCF7 cells [4]; 20 µM, 2 days
  effect on MCF7 protein content: significantly reduced
MCF7 cells [4]; 50 µM, 48 hours
  reduction of MCF7 protein content: ~40%
